Measurements from paper PMC5218480 (PLoS ONE, 2017).

Tested on: MV-4-11 cells
Assay: Gene expression microarray analysis (Affymetrix PrimeView) and GSEA
Type: cell-based, human
Parameters: RFU PODN (11730768_x_at) / Fold change /veh PODN (11730768_x_at) / RFU LINC00158 (11744669_a_at) / Fold change /veh LINC00158 (11744669_a_at) / RFU DUSP10 (11751237_a_at) / Fold change /veh DUSP10 (11751237_a_at) / RFU ID3 (11757404_x_at) / Fold change /veh ID3 (11757404_x_at) / RFU PLEKHG5 (11737974_s_at) / Fold change /veh PLEKHG5 (11737974_s_at) / RFU LRRC4B (11730491_at) / Fold change /veh LRRC4B (11730491_at) / RFU GIMAP4 (11747438_a_at) / Fold change /veh GIMAP4 (11747438_a_at) / RFU KRT8 (11758183_x_at) / Fold change /veh KRT8 (11758183_x_at) / RFU CNN1 (11734310_a_at) / Fold change /veh CNN1 (11734310_a_at) / RFU VPS37D (11726825_at) / Fold change /veh VPS37D (11726825_at) / RFU C10orf10 (11716522_x_at) / Fold change /veh C10orf10 (11716522_x_at) / RFU KIR2DL2 /// KIR2DL4 /// KIR2DL5A /// KIR2DL5B /// KIR2DS1 /// KIR2DS2 /// KIR2DS3 /// KIR2DS4 /// KIR3DL3 /// KIR3DL3 /// KIR3DS1 (11738374_at) / Fold change /veh KIR2DL2 /// KIR2DL4 /// KIR2DL5A /// KIR2DL5B /// KIR2DS1 /// KIR2DS2 /// KIR2DS3 /// KIR2DS4 /// KIR3DL3 /// KIR3DL3 /// KIR3DS1 (11738374_at) / RFU C1QL1 (11718748_at) / Fold change /veh C1QL1 (11718748_at) / RFU TMPRSS4 (11747572_a_at) / Fold change /veh TMPRSS4 (11747572_a_at) / RFU HAMP (11756126_x_at) / Fold change /veh HAMP (11756126_x_at) / RFU RNFT2 (11725882_a_at) / Fold change /veh RNFT2 (11725882_a_at) / RFU NR4A2 (11747474_a_at) / Fold change /veh NR4A2 (11747474_a_at) / RFU ABCC12 (11746883_a_at) / Fold change /veh ABCC12 (11746883_a_at) / RFU TMEM136 (11760407_x_at) / Fold change /veh TMEM136 (11760407_x_at) / RFU CLDN22 /// WWC2 (11732394_at) / Fold change /veh CLDN22 /// WWC2 (11732394_at) / RFU HLA-DPB1 (11760878_x_at) / Fold change /veh HLA-DPB1 (11760878_x_at) / RFU SPINT1 (11716480_a_at) / Fold change /veh SPINT1 (11716480_a_at) / RFU GAP43 (11754022_s_at) / Fold change /veh GAP43 (11754022_s_at) / RFU A4GNT (11735810_at) / Fold change /veh A4GNT (11735810_at) / RFU PRB3 (11715151_x_at) / Fold change /veh PRB3 (11715151_x_at) / RFU TUBB4B (11761932_at) / Fold change /veh TUBB4B (11761932_at) / RFU CAPN14 (11732068_a_at) / Fold change /veh CAPN14 (11732068_a_at) / RFU TMCC2 (11721928_a_at) / Fold change /veh TMCC2 (11721928_a_at) / RFU IRGQ (11745062_a_at) / Fold change /veh IRGQ (11745062_a_at) / RFU FAM174B (11720279_a_at) / Fold change /veh FAM174B (11720279_a_at) / RFU TMPRSS4 (11748680_a_at) / Fold change /veh TMPRSS4 (11748680_a_at) / RFU FAM212B (11763350_a_at) / Fold change /veh FAM212B (11763350_a_at) / RFU PLEKHG5 (11743358_a_at) / Fold change /veh PLEKHG5 (11743358_a_at) / RFU ZSCAN30 (11745921_a_at) / Fold change /veh ZSCAN30 (11745921_a_at) / RFU CMKLR1 (11741424_a_at) / Fold change /veh CMKLR1 (11741424_a_at) / RFU LOC101060620 /// MAPK8IP1 (11723275_at) / Fold change /veh LOC101060620 /// MAPK8IP1 (11723275_at) / RFU SPTSSB (11747773_x_at) / Fold change /veh SPTSSB (11747773_x_at) / RFU PRSS12 (11739890_at) / Fold change /veh PRSS12 (11739890_at) / RFU BIN1 (11741810_x_at) / Fold change /veh BIN1 (11741810_x_at) / RFU WNT11 (11732464_a_at) / Fold change /veh WNT11 (11732464_a_at) / RFU C10orf10 (11716521_a_at) / Fold change /veh C10orf10 (11716521_a_at) / RFU C5orf56 (11738089_at) / Fold change /veh C5orf56 (11738089_at) / RFU CYB561 (11721691_x_at) / Fold change /veh CYB561 (11721691_x_at) / RFU ANKRD19P (11752326_a_at) / Fold change /veh ANKRD19P (11752326_a_at) / RFU OR2T12 /// OR2T33 /// OR2T8 (11738714_s_at) / Fold change /veh OR2T12 /// OR2T33 /// OR2T8 (11738714_s_at) / RFU VCAN (11748164_a_at) / Fold change /veh VCAN (11748164_a_at) / RFU JSRP1 (11732532_at) / Fold change /veh JSRP1 (11732532_at) / RFU KRTAP10-11 (11738290_x_at) / Fold change /veh KRTAP10-11 (11738290_x_at) / RFU MYO3A (11730013_a_at) / Fold change /veh MYO3A (11730013_a_at) / RFU EBF3 (11725865_a_at) / Fold change /veh EBF3 (11725865_a_at) / RFU CAMK2N1 (11719241_x_at) / Fold change /veh CAMK2N1 (11719241_x_at) / RFU C5orf56 (11738088_a_at) / Fold change /veh C5orf56 (11738088_a_at) / RFU OLFML3 (11715873_a_at) / Fold change /veh OLFML3 (11715873_a_at) / RFU LOC100653217 /// NTM (11731650_a_at) / Fold change /veh LOC100653217 /// NTM (11731650_a_at) / RFU MAPK11 (11762145_a_at) / Fold change /veh MAPK11 (11762145_a_at) / RFU FIZ1 (11724087_x_at) / Fold change /veh FIZ1 (11724087_x_at) / RFU OASL (11726364_x_at) / Fold change /veh OASL (11726364_x_at) / RFU SOX15 (11748057_x_at) / Fold change /veh SOX15 (11748057_x_at) / RFU CD79A (11719716_a_at) / Fold change /veh CD79A (11719716_a_at) / RFU HIST1H1D (11736915_at) / Fold change /veh HIST1H1D (11736915_at) / RFU CASKIN2 (11723855_a_at) / Fold change /veh CASKIN2 (11723855_a_at) / RFU LOC730098 (11760151_x_at) / Fold change /veh LOC730098 (11760151_x_at) / RFU OR4N2 (11742367_at) / Fold change /veh OR4N2 (11742367_at) / RFU PRRT2 (11749266_a_at) / Fold change /veh PRRT2 (11749266_a_at) / RFU SNX32 (11753110_a_at) / Fold change /veh SNX32 (11753110_a_at) / RFU CDHR5 (11726645_a_at) / Fold change /veh CDHR5 (11726645_a_at) / RFU RCAN1 (11760418_a_at) / Fold change /veh RCAN1 (11760418_a_at) / RFU FAM167A (11723789_a_at) / Fold change /veh FAM167A (11723789_a_at) / RFU FAM26E (11764081_at) / Fold change /veh FAM26E (11764081_at) / RFU ISYNA1 (11749810_s_at) / Fold change /veh ISYNA1 (11749810_s_at) / RFU ACY1 (11761880_at) / Fold change /veh ACY1 (11761880_at) / RFU 11764098_at / Fold change /veh 11764098_at / RFU SAMD14 (11745864_x_at) / Fold change /veh SAMD14 (11745864_x_at) / RFU NPB (11741838_a_at) / Fold change /veh NPB (11741838_a_at) / RFU TMPRSS6 (11731388_a_at) / Fold change /veh TMPRSS6 (11731388_a_at) / RFU KRTAP10-2 (11738614_at) / Fold change /veh KRTAP10-2 (11738614_at) / RFU ARHGAP8 /// PRR5-ARHGAP8 (11727945_x_at) / Fold change /veh ARHGAP8 /// PRR5-ARHGAP8 (11727945_x_at) / RFU KRTAP5-7 /// NADSYN1 (11734609_at) / Fold change /veh KRTAP5-7 /// NADSYN1 (11734609_at) / RFU RASL12 (11751679_a_at) / Fold change /veh RASL12 (11751679_a_at) / RFU CDKN2B (11736163_a_at) / Fold change /veh CDKN2B (11736163_a_at) / RFU PRF1 (11729649_at) / Fold change /veh PRF1 (11729649_at) / RFU, ZNF638 /// ZNF638-IT1 / Fold change vs veh, ZNF638 /// ZNF638-IT1 / RFU, PANK3 / Fold change vs veh, PANK3 / RFU, SH3YL1 / Fold change vs veh, SH3YL1 / RFU, ZEB2 / Fold change vs veh, ZEB2 / RFU, NRIP1 / Fold change vs veh, NRIP1 / RFU, PTTG1IP / Fold change vs veh, PTTG1IP / RFU, CAPN2 / Fold change vs veh, CAPN2 / RFU, MED14 / Fold change vs veh, MED14 / RFU, SNORA58 / Fold change vs veh, SNORA58 / RFU, C1orf63 / Fold change vs veh, C1orf63 / RFU, LRRFIP1 / Fold change vs veh, LRRFIP1 / RFU, NDUFAF7 / Fold change vs veh, NDUFAF7 / RFU, SLC12A2 / Fold change vs veh, SLC12A2 / RFU, IBTK / Fold change vs veh, IBTK / RFU, ESF1 / Fold change vs veh, ESF1 / Fold change vs veh, TMEM50B / RFU, TAOK1 / Fold change vs veh, TAOK1 / RFU, ACBD3 / Fold change vs veh, ACBD3 / RFU, TMA16 / Fold change vs veh, TMA16 / RFU, RWDD3 / Fold change vs veh, RWDD3 / RFU, BCAT1 / Fold change vs veh, BCAT1 / RFU, EDEM3 / Fold change vs veh, EDEM3 / RFU, TMEM33 / Fold change vs veh, TMEM33 / RFU, WDR75 / Fold change vs veh, WDR75 / RFU, AHCTF1 / Fold change vs veh, AHCTF1 / RFU, TFRC / Fold change vs veh, TFRC / RFU, ZDHHC17 / Fold change vs veh, ZDHHC17 / RFU, NOM1 / Fold change vs veh, NOM1 / RFU, ARL8B / Fold change vs veh, ARL8B / RFU, ZBTB11 / Fold change vs veh, ZBTB11 / RFU, TAMM41 / Fold change vs veh, TAMM41 / RFU, KIAA1704 /// LOC100996395 / Fold change vs veh, KIAA1704 /// LOC100996395 / RFU, ING1 / Fold change vs veh, ING1 / RFU, TRMT61B / Fold change vs veh, TRMT61B / RFU, FUBP3 / Fold change vs veh, FUBP3 / RFU, TP53 / Fold change vs veh, TP53 / RFU, TNKS2 / Fold change vs veh, TNKS2 / RFU, ZFP14 / Fold change vs veh, ZFP14 / RFU, ACTR2 / Fold change vs veh, ACTR2 / RFU, PPP3R1 / Fold change vs veh, PPP3R1 / RFU, PIK3R1 / Fold change vs veh, PIK3R1 / RFU, HNRNPA1 / Fold change vs veh, HNRNPA1 / RFU, RNF170 / Fold change vs veh, RNF170 / RFU, ZNF28 / Fold change vs veh, ZNF28 / RFU, RNGTT / Fold change vs veh, RNGTT / RFU, OGT / Fold change vs veh, OGT / RFU, BRD1 / Fold change vs veh, BRD1 / RFU, MARS / Fold change vs veh, MARS / RFU, ZNF655 / Fold change vs veh, ZNF655 / RFU, FAHD1 / Fold change vs veh, FAHD1 / RFU, BDP1 / Fold change vs veh, BDP1 / RFU, LRRCC1 / Fold change vs veh, LRRCC1 / RFU, ARID1A / Fold change vs veh, ARID1A / RFU, ZNF146 / Fold change vs veh, ZNF146 / RFU, ZNF330 / Fold change vs veh, ZNF330 / RFU, GPN3 / Fold change vs veh, GPN3 / RFU, C9orf123 / Fold change vs veh, C9orf123 / RFU, N4BP2L2 / Fold change vs veh, N4BP2L2 / RFU, ARFIP1 / Fold change vs veh, ARFIP1 / RFU, FAM179B / Fold change vs veh, FAM179B / RFU, BCL10 / Fold change vs veh, BCL10 / RFU, UHRF1BP1L / Fold change vs veh, UHRF1BP1L / RFU, BET1 / Fold change vs veh, BET1 / RFU, CNOT2 / Fold change vs veh, CNOT2 / RFU, ZNF268 / Fold change vs veh, ZNF268 / Fold change vs veh, ZNF507 / RFU, DGCR2 / Fold change vs veh, DGCR2 / RFU, WDSUB1 / Fold change vs veh, WDSUB1 / Fold change vs veh, HSP90B1 /// MIR3652 / RFU, ADSS / Fold change vs veh, ADSS / RFU, GK / Fold change vs veh, GK / RFU, ZNF148 / Fold change vs veh, ZNF148 / RFU, TAF9 / Fold change vs veh, TAF9 / RFU, SLC1A5 / Fold change vs veh, SLC1A5 / RFU, SLMO2 / Fold change vs veh, SLMO2 / RFU, ABCC4 / Fold change vs veh, ABCC4 / RFU, LOC101060439 /// RAP1B / Fold change vs veh, LOC101060439 /// RAP1B / RFU, RFX7 / Fold change vs veh, RFX7 / RFU, GTPBP10 / Fold change vs veh, GTPBP10 / RFU, CNEP1R1 / Fold change vs veh, CNEP1R1 / RFU, BIVM-ERCC5 /// ERCC5 / Fold change vs veh, BIVM-ERCC5 /// ERCC5 / RFU, ILF3 / Fold change vs veh, ILF3 / RFU 11762660_at / Fold change /veh 11762660_at / RFU VCAN (11757783_s_at) / Fold change /veh VCAN (11757783_s_at) / RFU DDX43 (11728927_at) / Fold change /veh DDX43 (11728927_at) / RFU KRT8 (11758188_x_at) / Fold change /veh KRT8 (11758188_x_at) / RFU NKD1 (11759106_at) / Fold change /veh NKD1 (11759106_at) / RFU SRD5A1 (11742802_a_at) / Fold change /veh SRD5A1 (11742802_a_at) / RFU TPSAB1 /// TPSB2 (11721975_s_at) / Fold change /veh TPSAB1 /// TPSB2 (11721975_s_at) / RFU GSTM3 (11746129_a_at) / Fold change /veh GSTM3 (11746129_a_at) / RFU IL23R (11737362_x_at) / Fold change /veh IL23R (11737362_x_at) / RFU TMEM51 (11727254_a_at) / Fold change /veh TMEM51 (11727254_a_at) / RFU PIWIL2 (11732686_x_at) / Fold change /veh PIWIL2 (11732686_x_at) / RFU ORM1 (11744905_x_at) / Fold change /veh ORM1 (11744905_x_at) / RFU CCDC152 (11743942_at) / Fold change /veh CCDC152 (11743942_at) / RFU ECM1 (11717891_a_at) / Fold change /veh ECM1 (11717891_a_at) / RFU IL23R (11748794_a_at) / Fold change /veh IL23R (11748794_a_at) / RFU TNFAIP8L3 (11732012_x_at) / Fold change /veh TNFAIP8L3 (11732012_x_at) / RFU MBOAT4 (11741988_at) / Fold change /veh MBOAT4 (11741988_at) / RFU 11764193_at / Fold change /veh 11764193_at / RFU TMEM53 (11763286_at) / Fold change /veh TMEM53 (11763286_at) / RFU MAGEB2 (11727129_at) / Fold change /veh MAGEB2 (11727129_at) / RFU TMEM200A (11744735_a_at) / Fold change /veh TMEM200A (11744735_a_at) / RFU CCDC152 (11751479_a_at) / Fold change /veh CCDC152 (11751479_a_at) / RFU FAM211A (11726209_a_at) / Fold change /veh FAM211A (11726209_a_at) / RFU RGS16 (11746705_a_at) / Fold change /veh RGS16 (11746705_a_at) / RFU VCAN (11755009_s_at) / Fold change /veh VCAN (11755009_s_at) / RFU RHOB (11743442_s_at) / Fold change /veh RHOB (11743442_s_at) / RFU RGS16 (11720943_a_at) / Fold change /veh RGS16 (11720943_a_at) / RFU RGS16 (11720944_at) / Fold change /veh RGS16 (11720944_at) / RFU, VPS4B / Fold change vs veh, VPS4B / RFU, CREB1 / Fold change vs veh, CREB1 / RFU, DNAJC13 / Fold change vs veh, DNAJC13 / RFU, GNAQ / Fold change vs veh, GNAQ / RFU, CDK5R1 / Fold change vs veh, CDK5R1 / RFU, ZRANB3 / Fold change vs veh, ZRANB3 / RFU, CUL4A / Fold change vs veh, CUL4A / RFU, CCNY / Fold change vs veh, CCNY / RFU, UFL1 / Fold change vs veh, UFL1 / RFU, COG3 / Fold change vs veh, COG3 / RFU, DIAPH2 / Fold change vs veh, DIAPH2 / RFU, SKA2 / Fold change vs veh, SKA2 / RFU, AFF3 / Fold change vs veh, AFF3 / RFU, LMF1 / Fold change vs veh, LMF1 / RFU, IPO11 / Fold change vs veh, IPO11 / RFU, DFFB / Fold change vs veh, DFFB / RFU, FOXP1 / Fold change vs veh, FOXP1 / RFU, CARD8 / Fold change vs veh, CARD8 / RFU, STRN3 / Fold change vs veh, STRN3 / RFU, ADK / Fold change vs veh, ADK / RFU, RASSF2 / Fold change vs veh, RASSF2 / RFU, WIPF1 / Fold change vs veh, WIPF1 / RFU, LARP1B / Fold change vs veh, LARP1B / RFU, RASA1 / Fold change vs veh, RASA1 / RFU, RB1 / Fold change vs veh, RB1 / RFU, PPFIA1 / Fold change vs veh, PPFIA1 / RFU, MAT2A / Fold change vs veh, MAT2A / RFU, CCT5 / Fold change vs veh, CCT5 / RFU, WDR92 / Fold change vs veh, WDR92 / RFU, CUX1 / Fold change vs veh, CUX1 / RFU, TTC7A / Fold change vs veh, TTC7A / RFU, TMEM135 / Fold change vs veh, TMEM135 / RFU, DEPTOR / Fold change vs veh, DEPTOR / RFU, CPM / Fold change vs veh, CPM / RFU, DNAJB6 / Fold change vs veh, DNAJB6 / RFU, CACNA2D3 / Fold change vs veh, CACNA2D3 / RFU, DTX4 / Fold change vs veh, DTX4 / RFU, TFCP2 / Fold change vs veh, TFCP2 / RFU, GMCL1 /// GMCL1P1 / Fold change vs veh, GMCL1 /// GMCL1P1 / RFU, AEBP2 / Fold change vs veh, AEBP2 / RFU, SNHG1 /// SNORD22 /// SNORD25 /// SNORD26 /// SNORD27 /// SNORD28 /// SNORD29 /// SNORD31 / Fold change vs veh, SNHG1 /// SNORD22 /// SNORD25 /// SNORD26 /// SNORD27 /// SNORD28 /// SNORD29 /// SNORD31 / Fold change (Aza/veh), C12orf56 (ProbeSet 11735607_a_at) / Fold change (ACY-1035/veh), C12orf56 (ProbeSet 11735607_a_at) / Fold change (Aza/veh), FGFR1OP (ProbeSet 11751329_s_at) / Fold change (ACY-1035/veh), FGFR1OP (ProbeSet 11751329_s_at) / Fold change (Aza/veh), VPS36 (ProbeSet 11739960_a_at) / Fold change (ACY-1035/veh), VPS36 (ProbeSet 11739960_a_at) / RFU SYPL1 (11715823_x_at) / Fold change /veh SYPL1 (11715823_x_at) / RFU IGFBP7 (11715501_s_at) / Fold change /veh IGFBP7 (11715501_s_at) / RFU REEP3 (11722064_at) / Fold change /veh REEP3 (11722064_at) / RFU IGLL1 (11728026_x_at) / Fold change /veh IGLL1 (11728026_x_at): dose or concentration left out as unconfirmed
Settings: MV-4-11 cells, 48 hours

## Nc1ncn([C@@H]2O[C@H](CO)[C@@H](O)[C@H]2O)c(=O)n1 [azacitidine]
  RFU REEP3 (11722064_at): 27.20 RFU
